From patent US7858394B2, “Test methods for determining the intracellular concentration of cyclic nucleotides” (Axxam SpA, priority 2003, dated 2010)

Tests used:
[1] = test system: soluble guanylate cyclase; assay: Luminescence measurement of intracellular cGMP in a cell line expressing the CNG2 channel, a calcium-sensitive photoprotein and soluble guanylate cyclase; type: cell-based; settings: dose-dependent; RLUs measured for 1 min; FIG. 2
Procedure: (§1) The cells are seeded for the measurements on 384-well microtitre plates (MTPs) at 1500 cells per well and on 1536-well MTPs at 250 cells per well. After 1-2 days of growth at 37° C./5% CO2, the cell culture medium (DMEM/F12 containing 10% foetal calf serum) is removed and the cells are charged with coelenterazine (0.8 μg/ml) in calcium-free Tyrode's at 37° C./5% CO2 for 3 h. Subsequently, test substances and appropriate control substances (e.g. SIN-1 or isoprenaline) are added in calcium-free Tyrode's and incubated on the cells for 5-10 min. The extra measurement is then carried out in a light-tight box by adding calcium-containing Tyrode's via a comb (final calcium concentration: 3 mM), with the aid of a charge-coupled device camera.

Procedure for β-adrenergic receptor: as §1
To measure the effects of substances directly, the cells are charged with coelenterazine in calcium-containing Tyrode's. The substances are then added within the light-tight box and measurement commences immediately with addition of the substances (FIG. 5).
If the cells are charged with coelenterazine in calcium-containing Tyrode's, the agonist isoprenaline may also be added directly to the cells within the light-tight box.

SMILES	luminescence signal (intracellular cGMP concentration) after activation of soluble guanylate cyclase [1]	time until luminescence signal is observed after addition of agonist (β-adrenergic receptor; cells charged with coelenterazine in calcium-containing Tyrode's, agonist 10^-6 M added directly within the light-tight box, FIG. 5)	luminescence signal (intracellular cAMP concentration) after activation of the β-adrenergic receptor (β-adrenergic receptor; dose-dependent, 10 min incubation in calcium-free Tyrode's, measurement started by adding calcium, 0, 10^-7 M, 10^-6 M, FIG. 4)
[NH-]c1c[n+](N2CCOCC2)no1 [SIN-1]	enhanced luminescence signal		
CC(C)NCC(O)c1ccc(O)c(O)c1 (stereo not drawn) [isoprenaline]		within a few seconds	enhanced lumiscence signal
